Drawing on patent US7902226B2, “Dehalogeno-compounds” (Daiichi Pharmaceutical Co., Ltd., priority 2000, dated 2011), this text covers MIC for two compounds.

Converted amounts (≈) assume the structure as drawn. Some results are limits rather than exact numbers.

Experiment in all cases: Antibacterial activity (MIC), standard method of the Japan Society of Chemotherapy
Common to all, as to format: cell-based

In one experiment the test system is Ps. aeruginosa, 32121. The following applies: Pseudomonas aeruginosa. The gist of the method:
(§1)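 Activity against each strain is expressed as MIC (µg/ml). Testing followed the standard protocol of the Japan Society of Chemotherapy.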

For another experiment, the system named is S. flexneri, 2A 5503. As to conditions: Shigella flexneri, 2A5503. The gist of the method: as §1
For the next experiment, the system named is Ps. aeruginosa, 32104. The following applies: Pseudomonas aeruginosa. The gist of the method: as §1
In experiment [1] the test system is Str. faecalis, ATCC 19433. As to conditions: Enterococcus faecalis, ATCC19433. Put shortly:
as §1

For the next experiment, the system named is S. epidermidis, 56500. As to conditions: Staphylococcus epidermidis. Put shortly:
as §1

For a further experiment, the system named is Str. pneumoniae J24. The following applies: Streptococcus pneumoniae. Put shortly:
as §1

Another experiment deals with Pr. vulgalis, 08601. Put shortly:
as §1

In a further experiment the test system is Str. pyogenes, G-36. As to conditions: Streptococcus pyogenes, G36. The gist of the method:
as §1

A further experiment has as its system E. coli, NIHJ. As to conditions: Escherichia coli. The gist of the method: as §1

As for `Cc1c(N2CC[C@@H](C3(N)CC3)C2)c(F)cc2c(=O)c(C(=O)O)cn([C@@H]3C[C@@H]3F)c12` [Reference drug 1, 7-[3-(R)-(1-aminocyclopropyl)pyrrolidin-1-yl]-6-fluoro-1-[2-(S)-fluoro-1-(R)-cyclopropyl]-8-methyl-1,4-dihydro-4-oxoquinoline-3-carboxylic acid, reference compound], the MIC is 12 ng/mL (≈ 0.0297 µM) in the experiment with Ps. aeruginosa, 32121; at most 3 ng/mL in the experiment on S. flexneri, 2A 5503; 25 ng/mL (≈ 0.062 µM) with Ps. aeruginosa, 32104; 6 ng/mL (≈ 0.0149 µM) in [1]; at most 3 ng/mL against S. epidermidis, 56500; at most 3 ng/mL in the experiment on Str. pneumoniae J24. For the same compound, the MIC in the experiment on Pr. vulgalis, 08601 is at most 3 ng/mL; against Str. pyogenes, G-36, at most 3 ng/mL; in the experiment with E. coli, NIHJ it was at most 3 ng/mL.
`Cc1c(N2CC[C@@H](C3(N)CC3)C2)ccc2c(=O)c(C(=O)O)cn([C@@H]3C[C@@H]3F)c12` [Example 1, 7-[3-(R)-(1-aminocyclopropyl)pyrrolidin-1-yl]-1-[2-(S)-fluoro-1-(R)-cyclopropyl]-1,4-dihydro-8-methyl-4-oxoquinoline-3-carboxylic acid]: the MIC was 25 ng/mL (≈ 0.0649 µM) in the experiment with Ps. aeruginosa, 32121; 6 ng/mL (≈ 0.0156 µM) with S. flexneri, 2A 5503; 50 ng/mL (≈ 0.13 µM) in the experiment on Ps. aeruginosa, 32104; 12 ng/mL (≈ 0.0311 µM) in [1]; at most 3 ng/mL with S. epidermidis, 56500; at most 3 ng/mL against Str. pneumoniae J24. For the same compound, the MIC in the experiment on Pr. vulgalis, 08601 was at most 3 ng/mL; with Str. pyogenes, G-36 it was at most 3 ng/mL; in the experiment with E. coli, NIHJ, at most 3 ng/mL.
